Assay results published in ChEMBL document CHEMBL1130300, “Antiinflammatory effects of escins Ia, Ib, IIa, and IIb from horse chestnut, the seeds of Aesculus hippocastanum L” (Bioorg Med Chem Lett, 1997).
Activity calls are given as the source filed them. No cut-off for these calls is given here.

Assays:
Type in all cases: functional, organism-based
Rattus norvegicus [1] = assay: Compound was tested for dose-dependent inhibition in increase of vascular permeability induced by intracutaneous injection of serotonin in rat at 200 mg/kg, p.o.; NI means No inhibition; set-up: dose 200 mg/kg
Rattus norvegicus [2] = assay: Compound was tested for dose-dependent inhibition in increase of vascular permeability induced by intracutaneous injection of serotonin in rat at 50-200 mg/kg, p.o; Inhibited
Mus musculus [3] = assay: Compound at 25-200 mg/kg, p.o., dose-dependently inhibited the scratching behavior induced by subcutaneous injection […]; inhibited
Rattus norvegicus [4] = assay: Compound at 200 mg/kg peroral dose in rat showed tendency to inhibit the second phase; inhibited; set-up: dose 200 mg/kg
Mus musculus [5] = assay: Compound at 50-200 mg/kg, p.o, dose-dependently inhibited the increase of vascular permeability induced by intraperitoneal injection of acetic acid in mice; inhibited
Rattus norvegicus [6] = assay: Compound at 200 mg/kg, p.o., also significantly inhibited the hind paw edema induced by carrageenan at first phase in rat; inhibited; set-up: dose 200 mg/kg
Rattus norvegicus [7] = assay: Compound at 50-200 mg/kg, p.o, dose-dependently inhibited the increase of vascular permeability induced by intracutaneous injection of histamine in rat; inhibited
Rattus norvegicus [8] = assay: Compound at 200 mg/kg peroral dose in rat showed significant suppression at second phase; suppressed; set-up: dose 200 mg/kg

Structure (SMILES) | Activity (Rattus norvegicus [1]) | Activity (Rattus norvegicus [2]) | Activity (Mus musculus [3]) | Activity (Rattus norvegicus [4]) | Activity (Mus musculus [5]) | Activity (Rattus norvegicus [6]) | Activity (Rattus norvegicus [7]) | Activity (Rattus norvegicus [8])
CC1(C)CC2C3=CCC4[C@@]5(C)CC[C@H](O[C@@H]6O[C@H](C(=O)O)[C@@H](O[C@@H]7O[C@H](CO)[C@@H](O)[C@H](O)[C@H]7O)[C@H](O)[C@H]6O[C@@H]6OC[C@@H](O)[C@H](O)[C@H]6O)[C@](C)(CO)C5CC[C@@]4(C)[C@]3(C)C[C@@H](O)[C@@]2(CO)[C@@H](O)[C@@H]1O (stereo not given in full) | inactive | – | – | – | – | – | – | –
C/C=C(\C)C(=O)O[C@H]1[C@H](OC(C)=O)[C@@]2(CO)C(CC1(C)C)C1=CCC3[C@@]4(C)CC[C@H](O[C@@H]5O[C@H](C(=O)O)[C@@H](O[C@@H]6O[C@H](CO)[C@@H](O)[C@H](O)[C@H]6O)[C@H](O)[C@H]5O[C@@H]5OC[C@@H](O)[C@H](O)[C@H]5O)[C@](C)(CO)C4CC[C@@]3(C)[C@]1(C)C[C@H]2O (stereo not given in full) | – | inhibited | inhibited | inhibited | inhibited | inhibited | inhibited | –
C/C=C(/C)C(=O)O[C@H]1[C@H](OC(C)=O)[C@@]2(CO)C(CC1(C)C)C1=CCC3[C@@]4(C)CC[C@H](O[C@@H]5O[C@H](C(=O)O)[C@@H](O[C@@H]6O[C@H](CO)[C@@H](O)[C@H](O)[C@H]6O)[C@H](O)[C@H]5O[C@@H]5OC[C@@H](O)[C@H](O)[C@H]5O)[C@](C)(CO)C4CC[C@@]3(C)[C@]1(C)C[C@H]2O (stereo not given in full) | – | inhibited | inhibited | inhibited | inhibited | inhibited | inhibited | –
CC1(C)CC2C3=CCC4[C@@]5(C)CC[C@H](O[C@@H]6O[C@H](C(=O)O)[C@@H](O[C@@H]7O[C@H](CO)[C@@H](O)[C@H](O)[C@H]7O)[C@H](O)[C@H]6O[C@@H]6O[C@H](CO)[C@@H](O)[C@H](O)[C@H]6O)[C@](C)(CO)C5CC[C@@]4(C)[C@]3(C)C[C@@H](O)[C@@]2(CO)[C@@H](O)[C@@H]1O (stereo not given in full) | inactive | – | – | – | – | – | – | –
C/C=C(\C)C(=O)O[C@H]1[C@H](OC(C)=O)[C@@]2(CO)C(CC1(C)C)C1=CCC3[C@@]4(C)CC[C@H](O[C@@H]5O[C@H](C(=O)O)[C@@H](O[C@@H]6O[C@H](CO)[C@@H](O)[C@H](O)[C@H]6O)[C@H](O)[C@H]5O[C@@H]5O[C@H](CO)[C@@H](O)[C@H](O)[C@H]5O)[C@](C)(CO)C4CC[C@@]3(C)[C@]1(C)C[C@H]2O (stereo not given in full) | – | inhibited | inhibited | – | inhibited | inhibited | inhibited | inhibited
